From US5646310A, “N-(2-cyanoethyl)-6-fluoroalkyl-2h-1-benzopyran derivatives” (Chugai Seiyaku Kabushiki Kaisha, priority 1993, dated 1997)

System: thoracic aorta
Experiment: Extracted rat aorta, relaxation of KCl-induced constriction relative to maximum relaxation (Test Example 2)
Assay type: cell-based, male Sprague Dawley rat
Details: relaxation of continuous constriction caused by 30 mM potassium chloride, rat aorta ring, 2 ml organ bath; read-out: 50% inhibitory concentration (EC50) relative to the maximum relaxation effect of the compound
Description: (§1) A thoracic aorta was extracted from male Sprague Dawley rat (450-600 g) to prepare a ring-formed sample having a width of 2 mm. The resulting sample was suspended at a tension of 2 g in a 2 ml organ bath containing Krebs-Henseleit solution, and a gas composed of 95% oxygen and 5% carbon dioxide was passed therethrough. A constriction reaction of the sample was recorded isometrically by a FD pick-up. After equilibration for 1 to 1.5 hour, 30 mM potassium chloride was added in order to constrict the tissue, and an activity of the test compound for relaxing the continuous constriction caused by potassium chloride was evaluated by determining a 50% inhibitory concentration (EC50) of the compound relative to the maximum relaxation effect of the compound.

EC50 | SMILES
21 pM | N#CCCNC(=S)C1=CC(CF)(CF)Oc2ccc(C(F)(F)F)cc21 [Compound 3, N-(2-cyanoethyl)-2,2-bisfluoromethyl-6-tri-fluoromethyl-2H-1-benzopyran-4-carbothioamide]
19 pM | N#CCCNC(=S)C1=CC(CF)(CF)Oc2ccc(C(F)(F)C(F)(F)F)cc21 [Compound 4, N-(2-cyanoethyl)-6-pentafluoroethyl-2,2-bis-fluoromethyl-2H-1-benzopyran-4-carbothioamide]
170000 pM | CC1(C)Oc2ccc(C#N)cc2C(N2CCCC2=O)C1O (stereo not shown) [Cromakalim, cromakalim, reference compound]

System: thoracic aorta
Experiment: Extracted rat aorta, relaxation of KCl-induced constriction (Test Example 1)
Assay type: cell-based, male Sprague Dawley rat
Details: relaxation of continuous constriction caused by 30 mM potassium chloride, rat aorta ring; read-out: 50% inhibitory concentration (IC50)
Description: as §1, with “an” for “a 2 ml”, “(IC50). As comparative compounds, N-(2-cyanoethyl)-2,2-dimethyl-6-nitro-2H-1-benzopyran-4-carbamide (Compound A) disclosed in WO 92/02514 and 6-trifluoromethyl--N-methyl-2,2-dimethyl-2H-1-benzopyran-4-carbothioamide (Compound B) disclosed in WO 92/14439 were used.” for “(EC50) of the compound relative to the maximum relaxation effect of the compound.”

IC50 | SMILES
240 pM | CC1(C)C=C(C(=O)NCCC#N)c2cc(C(F)(F)C(F)(F)F)ccc2O1 [Compound 1, N-(2-cyanoethyl)-6-pentafluoroethyl-2,2-dimethyl-2H-1-benzopyran-4-carbamide]
880 pM | CC1(C)C=C(C(=S)NCCC#N)c2cc(C(F)(F)C(F)(F)F)ccc2O1 [Compound 2, N-(2-cyanoethyl)-6-pentafluoroethyl-2,2-dimethyl-2H-1-benzopyran-4-carbothioamide]
2800 pM | CC1(C)C=C(C(=O)NCCC#N)c2cc([N+](=O)[O-])ccc2O1 [Compound A, N-(2-cyanoethyl)-2,2-dimethyl-6-nitro-2H-1-benzopyran-4-carbamide, reference compound]
1900 pM | CNC(=S)C1=CC(C)(C)Oc2ccc(C(F)(F)F)cc21 [Compound B, 6-trifluoromethyl--N-methyl-2,2-dimethyl-2H-1-benzopyran-4-carbothioamide, reference compound]
